pIC50: −log10 of the molar value. Where two headings read alike, the source gives them in different places.
Experiments:
[1] = target: muscarinic acetylcholine receptors; assay: inhibition of specific binding of ^3 H-Oxotremorine-M (^3 H-Oxo); parameters: species or system rat (male Wistar; conditions: ^3 H-Oxotremorine 1.0 nM, rat cortex, 30 min. at 25° C.
Summary of the method: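 Rat cortex membranes (male Wistar) in 20 mM Hepes pH 7.4 incubated with 1.0 nM ^3H-Oxotremorine-M (final) and test compound for 30 min at 25 °C; arecoline defines non-specific binding. Bound radioactivity by filtration and scintillation counting; IC50 (nM) from a single concentration via Co/Cx mass-action formula, reflecting high- and medium-affinity sites.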

[2] = target: T1, muscarinic receptors (M1 -site, pirenzepine sensitive site) (Rattus norvegicus, UniProt P08482); assay: inhibition of ^3 HPRZ (pirenzepine, [N-methyl-^3 H]) binding to rat cerebral cortex membranes; parameters: species or system rat (male Wistar
T1 construct: from tissue; host or cells: cerebral cortex membranes of male Wistar rats
T1 sequence (P08482 1-460): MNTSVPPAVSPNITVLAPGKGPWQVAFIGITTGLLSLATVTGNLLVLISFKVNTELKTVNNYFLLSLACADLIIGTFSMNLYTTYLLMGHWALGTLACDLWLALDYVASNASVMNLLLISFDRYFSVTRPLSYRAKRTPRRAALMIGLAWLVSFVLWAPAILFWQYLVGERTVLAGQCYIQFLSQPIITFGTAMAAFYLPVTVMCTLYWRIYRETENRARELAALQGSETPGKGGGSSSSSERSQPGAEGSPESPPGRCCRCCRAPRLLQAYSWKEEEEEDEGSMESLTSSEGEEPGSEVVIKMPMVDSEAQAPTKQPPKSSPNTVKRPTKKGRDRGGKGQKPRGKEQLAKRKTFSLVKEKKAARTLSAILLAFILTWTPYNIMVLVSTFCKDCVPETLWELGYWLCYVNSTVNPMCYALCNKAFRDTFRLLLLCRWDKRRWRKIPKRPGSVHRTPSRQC
Summary of the method: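 Male Wistar rat cortex membranes in 20 mM Hepes pH 7.4 were incubated with 1.0 nM (final) [3H]pirenzepine for 60 min at 20° C; nonspecific binding was defined with 1 μg/mL atropine. Filtration and scintillation counting were used, and IC50 was calculated from a single concentration assuming mass-action kinetics.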

[3] = ^3 HPRZ 1.0 nM, rat cortex, 60 min. at 20° C., read-out: ^3 HPRZ IC50 (head from b208 on: Pir IC-50)

Row | Structure (SMILES) | pIC50 [1] | pIC50 [2] | pIC50 [2, 3]
1 | c1ccc(SCCOc2nsnc2OC2CN3CCC2CC3)cc1 (racemic) [Compound 126, (±)-3-(2-[Phenylthio]ethoxy)-4-(1-azabicyclo[2.2.2]octyl-3-oxy)-1,2,5-thiadiazole] | 7.72 | 7.14 | 
2 | c1ccc2c(OCCOc3nsnc3OC3CN4CCC3CC4)cccc2c1 (racemic) [Compound 127, (±)-3-(2-[1-Napthyloxy]ethoxy)-4-(1-azabicyclo [2.2.2]octyl-3-oxy)-1,2,5-thiadiazole] | 7.21 |  | 6.43
3 | Brc1ccc(OCCOc2nsnc2OC2CN3CCC2CC3)cc1 (racemic) [Compound 128, (±)-3-(2-[4-Bromophenoxy]ethoxy)-4-(1-azabicyclo[2.2.2]octyl-3-oxy)-1,2,5-thiadiazole] | 8.16 |  | 6.96
4 | c1nsnc1OCCOc1nsnc1OC1CN2CCC1CC2 (racemic) [Compound 132, (±)-3-(2-[3-{1,2,5-Thiadiazoyloxy}]ethoxy)-4-(1-azabicyclo[2.2.2]octyl-3-oxy)-1,2,5-thiadiazole] | 7.96 | 7.18 | 
5 | CCCCOc1nsnc1OC1CCCNC1 (racemic) [Compound 134, (±)-3-Butyloxy-4-(3-piperidinyloxy)-1,2,5-thiadiazole] | 7.26 |  | 6.64
6 | CCCCSc1nsnc1O[C@@H]1CCC[C@H]1N(C)C (racemic) [Compound 143, (±)-trans-3-Butylthio-4-(2-dimethylaminocyclopentyloxy)-1,2,5-thiadiazole] | 5.85 |  | 6.20
7 | c1ccc(CCCCSc2nsnc2OC2CN3CCC2CC3)cc1 (racemic) [Compound 148, (±)-3-(4-Phenylbutylthio)-4-(1-azabicyclo[2.2.2]octyl-3-oxy)-1,2,5-thiadiazole] | 8.10 | 7.60 | 
8 | C(=Cc1ccccc1)CSc1nsnc1OC1CN2CCC1CC2 (racemic) [Compound 149, (±)-3-(3-Phenyl-2-propenylthio)-4-(1-azabicyclo[2.2.2]octyl-3-oxy)-1,2,5-thiadiazole] | 7.85 | 7.52 | 
9 | O=C(CCSc1nsnc1OC1CN2CCC1CC2)c1ccc(F)cc1 (racemic) [Compound 150, (±)-3-(3-[4-Fluorophenyl]propan-3-onethio)-4-(1-azabicyclo[2,2.2]octyl-3-oxy)-1,2,5-thiadiazole] | 7.77 | 7.44 | 
10 | c1ccc2c(c1)Sc1ccccc1N2CCCSc1nsnc1OC1CN2CCC1CC2 (racemic) [Compound 151, (±)-3-(3-[N-phenothiazinyl]propylthio)-4-(1-azabicyclo[2.2.2]octyl-3-oxy)-1,2,5-thiadiazole] | 5.68 |  | 5.57
11 | Fc1ccc(OC(CCSc2nsnc2OC2CN3CCC2CC3)c2ccc(F)cc2)cc1 (racemic) [Compound 152, (±)-3-(3-[4-fluorophenyl]-3-[4-fluorophenoxy]propylthio)-4-(1-azabicyclo[2.2.2]octyl-3-oxy)-1,2,5-thiadiazole] | 6.36 |  | 6.61
12 | FC(F)(F)c1ccc(OC(CCSc2nsnc2OC2CN3CCC2CC3)c2ccccc2)cc1 (racemic) [Compound 153, (±)-3-(3-Phenyl-3-[4-trifluoromethylphenoxy]propylthio)-4-(1-azabicyclo[2.2.2]octyl-3-oxy)-1,2,5-thiadiazole] | 6.22 |  | 6.69
13 | FC(F)(F)CCCSc1nsnc1OC1CN2CCC1CC2 (racemic) [Compound 154, (±)-3-(4,4,4-trifluorobutylthio)-4-(1-azabicyclo[2.2.2]octyl-3-oxy)-1,2,5-thiadiazole] | 7.96 | 8.20 | 
14 | c1cncc(CCCSc2nsnc2OC2CN3CCC2CC3)c1 (racemic) [Compound 155, (±)-3-(3-[3-pyridyl]propylthio)-4-(1-azabicyclo[2.2.2]octyl-3-oxy)-1,2,5-thiadiazole] | 8.47 | 8.06 | 
15 | Fc1ccc(OCCSc2nsnc2OC2CN3CCC2CC3)cc1 (racemic) [Compound 207, (±)-3-(2-[4-fluorophenoxy]ethylthio)-4-(1-azabicyclo[2.2.2]octyl-3-oxy)-1,2,5-thiadiazole] | 8.62 | 8.22 | 
16 | CCCCCSc1nsnc1O[C@H]1CN2CCC[C@H]1C2 (relative stereo) [Compound 23, (±)-exo-3-Pentylthio-4-(1-azabicyclo[3.2.1]octyl-6-oxy)-1,2,5-thiadiazole] | 7.26 |  | 7.74
17 | CCCCCSc1nsnc1O[C@@H]1CN2CCC[C@H]1C2 (relative stereo) [Compound 24, (±)-Endo-3-pentylthio-4-(1-azabicyclo[3.2.1]-octyl-6-oxy)-1,2,5-thiadiazole] | 7.72 |  | 7.72

Row | Structure (SMILES) | pIC50 [1] | pIC50 [2] | pIC50 [2, 3]
18 | CCCCOc1nsnc1O[C@@H]1CN2CC[C@H]1C2 (relative stereo) [Compound 25, (±)-endo-3-Butyloxy-4-(1-azabicyclo[2.2.1]heptyl-3-oxy)-1,2,5-thiadiazol] | 8.74 | 8.68 | 
19 | CCCCOc1nsnc1O[C@H]1CN2CC[C@H]1C2 (relative stereo) [Compound 26, (±)-Exo-3-butyloxy-4-(1-azabicyclo[2.2.1]heptyl-3-oxy)-1,2,5-thiadiazole] | 7.96 | 7.43 | 
20 | CCCCOc1nsnc1O[C@@H]1C[C@H]2CC(=O)C[C@@H]1N2C (relative stereo) [Compound 46, (±)-exo-3-Butyloxy-4-(6-(N-methyl-8-azabicyclo[3.2.1]octan-3-onoxy))-1,2,5-thiadiazole] | < 6.00 |  | < 6.00
21 | Clc1nsnc1O[C@@H]1CN2CCC[C@@H]1C2 (relative stereo) [Compound 47, (±)-exo-3-Chloro-4-(1-azabicyclo[3.2.1]octyl-6-oxy)-1,2,5thiadiazole] | 7.27 | 7.64 | 
22 | Clc1nsnc1O[C@H]1CN2CCC[C@@H]1C2 (relative stereo) [Compound 48, (±)-endo-3-Chloro-4-(1-azabicyclo [3.2.1]octyl-6-oxy)-1,2,5-thiadiazole] | 7.85 | 7.57 | 
23 | N#Cc1ccc(CSc2nsnc2O[C@H]2CN3CCC[C@@H]2C3)cc1 (relative stereo) [Compound 49, (±)-endo-3-(4-Cyanobenzylthio)-4-(1-azabicyclo[3.2.1]octyl-6-oxy)-1,2,5-thiadiazole] | 8.74 |  | 8.72
24 | CCCCSc1nsnc1O[C@H]1CN2CCC[C@@H]1C2 (relative stereo) [Compound 70, (±)3-(1-Butylthio)-4-[endo-6-(1-azabicyclo[3.2.1]octyloxy)]-1,2,5-thiadiazole] | 8.89 |  | 9.19
25 | CCCCOc1nsnc1O[C@H]1CN2CCC[C@@H]1C2 (relative stereo) [Compound 71, 3-(1-Butyloxy)-4-[endo-(+,-)-6-(1-azabicyclo[3.2.1]octyloxy)]-1,2,5-thiadiazole] | 8.96 |  | 8.94
26 | c1ccc(CCCSc2nsnc2O[C@H]2CN3CCC[C@@H]2C3)cc1 (relative stereo) [Compound 72, (±)3-(3-Phenylpropylthio)-4-[endo-6-(1-azabicyclo[3.2.1].cent.octyloxy)]-1,2,5-thiadiazole] | 8.72 |  | 9.26
27 | CCCCSc1nsnc1O[C@@H]1CN2CC[C@@H]1C2 (relative stereo) [Compound 131, (±)exo-3-Butylthio-4-(1-azabicyclo[2.2.1]heptyl-3-oxy)-1,2,5-thiadiazole] | 8.25 | 7.34 | 
28 | CCCCOc1nsnc1O[C@H]1C[C@@H]2CC[C@H]1N2 (relative stereo) [Compound 133, (±)-exo-3-Butyloxy-4-(7-azabicyclo[2.2.1]heptyl-3-oxy)-1,2,5-thiadiazole] | < 6.00 |  | < 6.00
29 | CCCCCCOc1nsnc1O[C@@H]1CN2CCC[C@H]1C2 (relative stereo) [Compound 136, (±)-endo-3-Hexyloxy-4-(1-azabicyclo[3.2.1]octyl-6-oxy)-1,2,5-thiadiazole] | 8.56 |  | 8.19
30 | CCCCSc1nsnc1O[C@@H]1CNC[C@H]1O (relative stereo) [Compound 146, (±)-trans-3-Butylthio-4-(4-hydroxy-pyrollidin-3-oxy)-1,2,5-thiadiazole] | 6.11 |  | < 6.00
31 | c1ccc(OCCSc2nsnc2O[C@@H]2CN3CCC[C@H]2C3)cc1 (relative stereo) [Compound 156, (±)-endo-3-(2-Phenoxyethylthio)-4-(1-azabicyclo[3.2.1]octyl-6-oxy)-1,2,5-thiadiazole] | 9.00 |  | 9.22
32 | FC(F)(F)CCCOc1nsnc1O[C@@H]1CN2CCC[C@H]1C2 (relative stereo) [Compound 167, (±)-endo-3-(4,4,4-Trifluorobutoxy)-4-(1-azabicyclo[3.2.1]octyl-6-oxy)-1,2,5-thiadiazole] | 8.55 |  | 8.70
33 | CC#CCOc1nsnc1O[C@@H]1CN2CCC[C@H]1C2 (relative stereo) [Compound 168] | 9.00 |  | 8.19
